Source: patent publication US10512656B2, “Compositions and methods for the treatment of lysosomal storage disorders and disorders characterized by lysosomal dysfunction” (Baylor College of Medicine, priority 2016, dated 2019)

Experiments:
Cln3^Δex7-8 mice = assay: Storage burden (autofluorescent storage material, confocal thresholding); assay type: in vivo, mouse; settings: S1BF and VPM/VPL, 7- and 12-month-old Cln3^Δex7-8 mice
Protocol: To analyse the relative level of the autofluorescent storage material present in each brain region, mouse brain sections spanning the S1BF and VPM/VPL were mounted onto gelatin-chrome-coated slides and cover-slipped with Vectashield (Vector Laboratories, Peterborough, UK). Non-overlapping images from each section were captured at ×63 magnification using a Leica SP5 confocal microscope and a 488 nm excitation laser (Leica Microsystem). Thresholding image analysis was performed to determine the storage burden present in each region. During image capture, all laser parameters and calibrations were kept constant. Semiquantitative thresholding image analysis was carried out using ImageJ (NIH).

CLEAR genes = assay: Real-time qPCR of CLEAR genes in control and JNCL fibroblasts; assay type: cell-based, human; settings: treated versus untreated
Protocol: (§1) Control (Coriell Institute, USA) and JNCL fibroblasts (Gaslini Institute, Italy) were grown in DMEM (1:1, HyClone) supplemented with 10% heat-inactivated fetal bovine serum (FBS, Atlanta Biologicals), 2 mM L-glutamine, 100 U/ml penicillin and […] streptomycin (Invitrogen). HeLa cells were incubated for 2 h with LY294002 ([…], Cell Signaling), Torin 1 (300 nM, Cayman Chemical) or for 24 h with trehalose (100 mM, Sigma), rapamycin (300 nM, Sigma), MK2206 (1 μM, Selleckchem), U0126 ([…], Tocris) and dialyzed serum (GE Healthcare Life Sciences) for 30 min.
(§2) Total RNA was extracted from the control and JNCL fibroblasts and from WT and Cln3^Δex7-8 cortical neuron cultures using the RNEasy kit (Qiagen) according to the manufacturer's instructions. Half of the mouse brain was processed for the RNA extraction and one microgram was used for complementary DNA synthesis by QuantiTect Reverse Transcription kit (Qiagen). The primers for PCR with reverse transcription reactions are listed in Table St Quantitative real-time PCR was performed by using iQ SYBR Green Supermix on the CFX96 Touch Real-Time Detection System (Bio-Rad Laboratories). […] Relative gene expression was determined using the ΔΔCT method, normalizing to GAPDH (for human genes) and cyclophilin (for mouse genes). […]

lysosomal genes = assay: Microarray expression analysis (gene ontology, GSEA) of fibroblasts; assay type: cell-based, human
Protocol: Total RNA from control and JNCL fibroblasts with and without trehalose treatment (100 mM, 4 days) was used to prepare complementary DNA for hybridization to the Illumina Human HT-12 V4.0 array platform. Experiments were performed in triplicate. Expression analysis was performed at the Microarray Core and Cell and Regulatory Biology, University of Texas, Houston, Tex., USA. A […] was used as a threshold for significance for assessing differential gene expression. GSEA was performed as previously described^10,11. The cumulative distribution function was constructed by performing 1,000 random gene set membership assignments. A nominal P<0.01 and an FDR<10% were used as thresholds for significance of the ES. Gene ontology analysis was performed with the web tool DAVID (https://david.ncifcrf.gov/) using default parameters. Pathway co-expression analyses were performed as previously described^8,9, and Cytoscape was used to represent graphically the expression correlation data.

[1] = test system: lysosomal and autophagy genes; assay: Expression analysis of whole brain homogenates; assay type: in vivo, mouse
Protocol: Total RNA was extracted from the control and JNCL fibroblasts and from WT and Cln3^Δex7-8 cortical neuron cultures using the RNEasy kit (Qiagen) according to the manufacturer's instructions. Half of the mouse brain was processed for the RNA extraction and one microgram was used for complementary DNA synthesis by QuantiTect Reverse Transcription kit (Qiagen). The primers for PCR with reverse transcription reactions are listed in Table St Quantitative real-time PCR was performed by using iQ SYBR Green Supermix on the CFX96 Touch Real-Time Detection System (Bio-Rad Laboratories). Samples were heated for 3 min at 95° C. and amplified in 39 cycles for 11 s at 95° C., 45 s at 60° C. with last cycle of 10 s at 95° C., 5 s at 65° C. and 5 s at 95° C. Analyses were conducted using CFX manager software (Bio-Rad) and the threshold cycle (CT) was extracted from the PCR amplification plot. Relative gene expression was determined using the ΔΔCT method, normalizing to GAPDH (for human genes) and cyclophilin (for mouse genes). The change in messenger RNA level of the genes was expressed in fold change as previously described. Error bars represent s.e.m. *P<0.05, **P<0.01, ***P<0.001.
Mice were injected intraperitoneally with MK2206 (120 mg/kg) for four times every other day. MK2206 was formulated in 30% captisol in water. […]

HeLa cells = assay: Autophagy in HeLa cells (LC3 puncta, LC3 lipidation, TEM); assay type: cell-based, human; settings: for number of autophagic vesicles: TEM
Protocol: (§3) FIG. 24. […] (b) Immunoblot analysis of LC3 lipidation. […] (d) Expression analysis of lysosomal and autophagy genes in HeLa cells treated with MK2206. Gene expression was normalized relative to the housekeeping gene, GAPDH. The dashed line indicates relative gene expression in untreated cells. […] Scale bar, 10 μm (a), 50 nm (c) and 20 μm (f).
as §1
For immunofluorescence assay, cells were grown on coverslips in 24-well plates. After the treatment, cells were washed with PBS and fixed with methanol for 10 min. Cells were then blocked with blocking reagent (0.1% saponin, 10% bovine serum in PBS) for 1 h and incubated with appropriate primary antibody(s) (1:100) for 3 h at room temperature. After three washes with PBS, the cells were incubated with appropriate secondary antibodies (1:500) for 1 h at room temperature. Coverslips were then mounted with vectashield containing 4,6-diamidino-2-phenylindole (H-1200) for imaging via confocal microscopy.
Brain tissue and cultured cells were collected and lysed in RIPA buffer (50 mM Tris-HCl, ph 7.4, 1% NP40, 0.5% Na-deoxycholate, 0.1% SDS, 150 mM NaCl, 2 mM EDTA and 50 mM NaF) including a cocktail of protease (Roche) and phosphatase (SIGMA) inhibitors. Protein concentrations were measured with the bicinchoninic acid protein assay kit (Pierce, Rockford, Ill.), using bovine serum albumin as standard. Lysates were separated via SDS-polyacrylamide gel electrophoresis (PAGE) and then transferred to nitrocellulose membranes. Blots were incubated in blocking buffer (5%, w/v, dried skimmed milk in Tris-buffered saline, pH 7.4 and 0.2% Tween 20, TBST) followed by overnight incubation with appropriate antibodies diluted in blocking buffer (5% dry milk). Western blot images were acquired by LAS 4000 (GE Healthcare) and quantified using ImageJ. Images have been cropped for presentation.

[2] = humans, oral; cited from earlier work
[3] = test system: lysosomal and autophagy genes; assay: Expression analysis of lysosomal and autophagy genes in HeLa cells; assay type: cell-based, human; settings: HeLa cells treated with MK2206
Protocol: as §3
Control (Coriell Institute, USA) and JNCL fibroblasts (Gaslini Institute, Italy) were grown in DMEM (1:1, HyClone) supplemented with 10% heat-inactivated fetal bovine serum (FBS, Atlanta Biologicals), 2 mM L-glutamine, 100 U/ml penicillin and […] streptomycin (Invitrogen). […]
as §2

Compound | punctate autofluorescent storage material (Cln3^Δex7-8 mice) | expression of CLEAR genes (CLEAR genes) | GSEA enrichment score, TFEB direct targets with a known role in lysosomal metabolism (lysosomal genes; control fibroblasts, P<0.0001) | GSEA enrichment score, lysosomal genes (lysosomal genes; control fibroblasts, P<0.0001) | gene ontology fold enrichment of lysosomal metabolism genes (lysosomal genes; genes with at least twofold change, JNCL and control fibroblasts, trehalose 100 mM 4 days) | expression of lysosomal and autophagy genes in brain ([1]; WT and Cln3^Δex7-8 mice, oral trehalose) | number of LC3 puncta (HeLa cells) | number of autophagic vesicles (HeLa cells) | ingested trehalose absorbed into the blood stream [2] | expression of lysosomal and autophagy genes in brain ([1]; Cln3^Δex7-8 mice, MK2206 120 mg/kg intraperitoneal) | LC3-II protein levels (HeLa cells; immunoblot) | expression of lysosomal and autophagy genes [3]
OC[C@H]1O[C@H](O[C@H]2O[C@H](CO)[C@@H](O)[C@H](O)[C@H]2O)[C@H](O)[C@@H](O)[C@@H]1O [trehalose, a-D-glucopyranosyl a-D-glucopyranoside] | significantly reduced | increased expression of tested CLEAR genes | 0.82 | 0.67 | > 5 | upregulation of lysosomal and autophagy genes | increased number of puncta | increased number of autophagic vesicles | Less than 0.5% | – | – | –
Cl.NC1(c2ccc(-c3nc4ccn5c(=O)[nH]nc5c4cc3-c3ccccc3)cc2)CCC1 [MK2206, 8-[4-(1-aminocyclobutyl)phenyl]-9-phenyl-1,2,4-triazolo[3,4-f][1,6]naphthyridin-3(2H)-one] | – | – | – | – | – | – | increased number of LC3 puncta | increased number of autophagic vesicles | – | upregulation of lysosomal and autophagy genes | increased LC3-II protein levels | upregulated the expression of lysosomal and autophagy genes
